“Also recorded” adds a separate entry of the source.
Assays:
[1] = system: lactate in sorted HFSCs; test: Metabolomic analysis of lactate on HFSCs isolated from treated skin; assay type: in vivo, mice; conditions: topical application, skin treated for 48 hours
Description: (§1) FIG. 7A: Animals treated topically with UK-5099 (20 μM) show pigmentation and hair growth, indicative of entry into anagen, after 8 days of treatment. Full anagen, indicated by full coat of hair, is achieved after 14 days of treatment. […] Images shown are representative of at least 14 mice from 7 independent experiments. Scale bars indicate 100 micrometers. FIG. 7B: Graph showing time to observed phenotype in vehicle versus UK-5099 treated mice. n=6 mice per condition. Shown as mean±SEM. […] Ldh activity is indicated by purple stain; pink is nuclear fast red counterstain. Scale bars indicate 50 micrometers. FIG. 7D: Metabolomic analysis of Lactate on HFSCs isolated from UK-5099 treated skin for 48 hours; Each bar represents the average signal for each condition where n=9 mice pooled from 3 independent experiments. Shown as mean±SEM. Paired t-test was performed, p<0.05.
(§2) Quantification of the hair cycle across at least 6 pairs of animals (vehicle vs UK-5099) indicated a strong acceleration of the hair cycle, in as few as 6-9 days (FIG. 7B).

[2] = system: Ldh activity in HFSCs and the interfollicular epidermis; test: Ldh enzyme activity assay in the epidermis of topically treated animals; assay type: in vivo, mice; conditions: topical, 48 hours during telogen
Description: as §1
To determine whether Ldha expression patterns correlate with activity of the Ldh enzyme, a colorimetric-based enzymatic assay was used to assess Ldh activity capacity in situ. Typically performed on protein lysates or aliquots with a plate reader, the Ldh activity assay was adapted to work in situ on frozen tissue sections. […]
as §2

[3] = system: hair cycle; test: Topical treatment of mice in telogen with UK-5099: hair cycle / HFSC activation; assay type: in vivo
Description: as §1, §2

[4] = topical treatment of animals in telogen (day 50)

Which results are given for N#C/C(=C\c1cn(-c2ccccc2)c2ccccc12)C(=O)O [UK-5099, (E)-2-Cyano-3-(1-phenyl-1H-indol-3-yl)acrylic acid]?
total levels of lactate in sorted HFSCs [1]: increases total levels of lactate; Ldh activity in HFSCs and interfollicular epidermis [2]: Ldh enzyme activity also seen in interfollicular epidermis; also recorded: increased Ldh activity; effect on the hair cycle [3, 4]: robust acceleration of the hair cycle; effect on the interfollicular epidermis (proliferation) [3, 4]: minor hyperproliferation of the interfollicular epidermis; time to full anagen, indicated by full coat of hair ([3]; topical, 20 μM): 14 days; skin pathology (entry into anagen) ([3]; topical, 20 μM, at 8 weeks, vehicle remained in telogen): enter an accelerated anagen; time to pigmentation and hair growth, indicative of entry into anagen ([3]; topical, 20 μM, vehicle shows none even after 12 days): 8 days; time in which acceleration of the hair cycle is seen ([3]; topical, at least 6 pairs of animals, vehicle vs UK-5099): 6 to 9 days

From US20220048908A1, “COMPOSITIONS AND METHODS FOR MODULATING HAIR GROWTH” (The Regents of the University of California, priority 2019, published 2022)
